pEC50, pKd: −log10 of the molar value. Residues, ends and D or L forms follow the SMILES beside them.
Tests used:
[1] = molecular target: T1, Insulin receptor (Homo sapiens, UniProt P06213); test: Activation of recombinant human insulin receptor using biotin-KSRGDYMTMQIG as substrate after 1 hr by spectrophotometry relative to insulin
[2] = molecular target: Insulin receptor (Mus musculus, UniProt P15208); test: Agonist activity at B6D2F1 mouse insulin receptor assessed as increase in glucose incorporation into lipid phase after 2 hrs in presence of D-[3-3H]glucose by TopCount microplate scintillation counting method
Chain of Insulin receptor (Mus musculus, UniProt P15208) (P15208 28-748 limits assumed): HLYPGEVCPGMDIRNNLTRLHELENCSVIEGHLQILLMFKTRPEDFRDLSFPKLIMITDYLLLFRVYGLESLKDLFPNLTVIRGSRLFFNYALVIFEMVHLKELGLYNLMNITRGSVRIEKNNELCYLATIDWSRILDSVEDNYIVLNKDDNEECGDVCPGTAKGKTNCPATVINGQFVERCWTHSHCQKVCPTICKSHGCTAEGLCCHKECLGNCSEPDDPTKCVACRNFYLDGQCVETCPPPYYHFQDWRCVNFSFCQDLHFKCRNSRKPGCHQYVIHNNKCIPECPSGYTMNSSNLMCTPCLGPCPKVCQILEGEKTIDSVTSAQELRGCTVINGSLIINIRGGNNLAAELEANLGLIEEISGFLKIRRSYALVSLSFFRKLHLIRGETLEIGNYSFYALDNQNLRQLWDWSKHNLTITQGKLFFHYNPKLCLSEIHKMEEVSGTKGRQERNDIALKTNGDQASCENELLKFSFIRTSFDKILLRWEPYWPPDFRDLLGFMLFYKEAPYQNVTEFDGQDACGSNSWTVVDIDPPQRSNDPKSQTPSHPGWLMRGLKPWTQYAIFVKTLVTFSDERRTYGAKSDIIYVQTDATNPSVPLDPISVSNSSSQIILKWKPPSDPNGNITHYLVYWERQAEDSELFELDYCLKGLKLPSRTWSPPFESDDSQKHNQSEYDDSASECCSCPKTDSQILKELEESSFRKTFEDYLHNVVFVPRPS
Chain of Insulin receptor (Mus musculus, UniProt P15208) (P15208 753-1372 limits assumed): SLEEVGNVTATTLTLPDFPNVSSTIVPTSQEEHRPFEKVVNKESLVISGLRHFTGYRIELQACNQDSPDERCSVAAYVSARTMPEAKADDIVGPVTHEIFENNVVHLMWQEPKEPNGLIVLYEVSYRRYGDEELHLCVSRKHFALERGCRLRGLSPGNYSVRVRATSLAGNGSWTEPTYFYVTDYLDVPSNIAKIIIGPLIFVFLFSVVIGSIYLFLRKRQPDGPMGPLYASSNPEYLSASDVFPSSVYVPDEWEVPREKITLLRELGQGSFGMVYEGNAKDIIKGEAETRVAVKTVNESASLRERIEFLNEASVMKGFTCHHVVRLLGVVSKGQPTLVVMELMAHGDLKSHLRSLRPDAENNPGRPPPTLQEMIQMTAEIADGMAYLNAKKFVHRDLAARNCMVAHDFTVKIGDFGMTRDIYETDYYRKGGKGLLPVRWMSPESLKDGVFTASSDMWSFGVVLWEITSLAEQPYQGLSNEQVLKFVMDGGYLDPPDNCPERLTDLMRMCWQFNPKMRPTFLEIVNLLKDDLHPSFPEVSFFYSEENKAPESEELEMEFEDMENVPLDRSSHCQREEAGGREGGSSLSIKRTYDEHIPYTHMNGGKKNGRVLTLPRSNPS

[3] = molecular target: T1, Insulin receptor; test: Displacement of [TyrA14-125I]-human insulin from human insulin receptor isoform A expressed in baby hamster kidney cells after 2 days by gamma counting method; assay type: cell-based

T1 sequence (P06213 28-758 limits assumed): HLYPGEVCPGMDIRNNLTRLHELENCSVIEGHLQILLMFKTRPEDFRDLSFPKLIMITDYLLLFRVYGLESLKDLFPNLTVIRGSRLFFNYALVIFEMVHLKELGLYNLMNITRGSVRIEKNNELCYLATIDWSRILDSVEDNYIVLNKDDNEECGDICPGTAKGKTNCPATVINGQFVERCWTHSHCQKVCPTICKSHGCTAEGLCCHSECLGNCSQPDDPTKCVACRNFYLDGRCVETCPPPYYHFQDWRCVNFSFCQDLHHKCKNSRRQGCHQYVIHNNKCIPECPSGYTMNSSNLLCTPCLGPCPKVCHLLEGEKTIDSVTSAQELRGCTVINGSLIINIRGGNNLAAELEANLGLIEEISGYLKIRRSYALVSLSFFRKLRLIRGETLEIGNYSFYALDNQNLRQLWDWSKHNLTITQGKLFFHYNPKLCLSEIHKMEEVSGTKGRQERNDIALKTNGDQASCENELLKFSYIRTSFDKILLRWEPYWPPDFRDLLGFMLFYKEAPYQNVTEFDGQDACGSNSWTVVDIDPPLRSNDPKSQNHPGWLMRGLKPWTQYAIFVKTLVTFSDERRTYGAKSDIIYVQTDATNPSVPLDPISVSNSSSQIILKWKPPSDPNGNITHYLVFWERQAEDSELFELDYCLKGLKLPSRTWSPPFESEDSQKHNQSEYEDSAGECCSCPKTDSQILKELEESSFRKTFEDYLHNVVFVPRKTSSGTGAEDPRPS
T1 sequence (P06213 763-1382 limits assumed): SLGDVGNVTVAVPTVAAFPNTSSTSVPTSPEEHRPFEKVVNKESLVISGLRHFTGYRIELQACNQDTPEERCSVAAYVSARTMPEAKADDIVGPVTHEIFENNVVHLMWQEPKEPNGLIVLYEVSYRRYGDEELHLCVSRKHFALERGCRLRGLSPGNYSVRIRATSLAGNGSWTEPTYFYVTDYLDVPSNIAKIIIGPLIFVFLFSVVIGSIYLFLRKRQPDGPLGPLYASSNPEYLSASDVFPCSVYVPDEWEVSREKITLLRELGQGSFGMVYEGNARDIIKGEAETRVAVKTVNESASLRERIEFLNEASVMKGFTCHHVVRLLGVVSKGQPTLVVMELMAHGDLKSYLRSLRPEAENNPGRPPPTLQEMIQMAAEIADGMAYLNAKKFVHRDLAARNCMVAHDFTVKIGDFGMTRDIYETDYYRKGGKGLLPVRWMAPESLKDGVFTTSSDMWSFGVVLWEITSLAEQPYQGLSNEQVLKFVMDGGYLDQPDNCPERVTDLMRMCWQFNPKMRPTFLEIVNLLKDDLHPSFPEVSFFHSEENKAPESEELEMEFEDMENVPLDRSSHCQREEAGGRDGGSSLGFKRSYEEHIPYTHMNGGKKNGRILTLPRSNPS

CC(C)C[C@H](NC(=O)[C@H](CCC(N)=O)NC(=O)[C@H](CCCNC(=N)N)NC(=O)[C@H](CCC(=O)O)NC(=O)[C@H](Cc1ccccc1)NC(=O)[C@H](Cc1c[nH]c2ccccc12)NC(=O)[C@H](CC(=O)O)NC(=O)[C@H](Cc1ccc(O)cc1)NC(=O)[C@H](Cc1ccccc1)NC(=O)[C@H](CO)NC(=O)[C@H](CCC(=O)O)NC(=O)[C@H](CC(=O)O)NC(=O)[C@H](CC(C)C)NC(=O)[C@H](CO)NC(=O)CNC(=O)[C@H](CO)NC(=O)[C@@H]1CCCN1C(=O)[C@H](CS)NC(=O)CNC(=O)[C@H](CCCNC(=N)N)NC(=O)CNC(=O)[C@H](Cc1ccc(O)cc1)NC(=O)[C@@H](NC(=O)[C@H](CCC(=O)O)NC(=O)[C@H](CS)NC(=O)[C@H](CCC(=O)O)NC(=O)[C@@H](NC(=O)[C@H](CCC(N)=O)NC(=O)[C@H](C)NC(=O)[C@H](Cc1c[nH]c2ccccc12)NC(=O)[C@H](CCC(=O)O)NC(=O)[C@H](CCC(=O)O)NC(=O)[C@H](CCC(=O)O)NC(=O)[C@H](CC(C)C)NC(=O)[C@@H](N)CO)C(C)C)C(C)C)C(=O)NCC(=O)O (H-SLEEEWAQVECEVYGRGCPSGSLDESFYDWFERQLG-OH)
Activity [1]: 10%
pEC50 [2]: 8.40
pKd [3]: 10.70
